Several values for one entry are separate records, joined by “and”; a condition that tells them apart may be missing. Identical values can stand only once. Entries after “also recorded” stand apart in the source; their conditions may differ.

These results are taken from patent US5155126A, “Treatment of central nervous system disorders with pyrazole, pyrrole and triazole angiotensin-II receptor antagonists” (E. I. du Pont de Nemours and Company, priority 1991, dated 1992).

In experiment [1] the test system is retention of a passive avoidance response. The conditions noted are these: injected into dorsal neostriatum; in words; cited from earlier work.
In experiment [2] the test system is renin-induced disruption of passive avoidance retention. Nature of the experiment: Renin-disrupted passive avoidance retention. The class given is in vivo, male Sprague-Dawley rats. The conditions noted are these: for effect on memory / renin-induced amnesia: IVT, in words. As to the method: Experimentally naive male Sprague-Dawley rats […] (Charles River Breeding Laboratories, Kingston, N.Y.), weighing between 175 to 200 gm were used. The animals were housed four per cage (45.0 L × 20.0 H × 26.0 W cm) with free access to food and water. They were maintained on a 12 h light/dark cycle (lights on 0600 h) and at a room temperature of 22±1° C. with relative humidity of 50±10%.
The experimental sessions were conducted in a two-compartment passive avoidance box. One compartment, made of clear plastic with a perforated clear plastic floor, measured 21(L)=24.5(H)=17(W) cm and was illuminated with a 60 watt incandescent light bulb placed 36 cm above the floor. The other compartment, made of black plastic, measured 30.5 (L)×20.3 (H)×21.5 (W) cm with a floor made of 4 mm stainless steel rods spaced 1.2 cm apart. A grid floor shocker (Coulbourn Instruments) was connected to the steel rods and provided scrambled footshock. The two compartments were separated by a solenoid-operated slide door (Lafayette Instrument Co., Lafayette, Ind.). An electronic counter (Coulbourn Instruments), triggered by the opening or closing of the slide door, recorded acquisition and retention latencies (latencies were defined as the time it took an animal to enter the dark compartment).
Passive avoidance training began by placing the rat into the clear compartment of the two-compartment passive avoidance box. Following a 10 sec delay, the slide door to the dark compartment was raised. Once the rat moved completely into the dark compartment (all four paws on the shock grid floor) the slide door was lowered, and after a 10 sec delay, a 1.0 mA shock was applied to the grid floor for three sec. A second three s shock was delivered after an additional 10 sec delay. The rats were immediately removed from the dark compartment and returned to their home cage. A retention test was given 24 h later. It proceeded in the same manner as the training session except that no shock was applied to the grid floor when the rats were provided access to the dark compartment for a maximum of 300 sec.
All drugs were administered IVT 60 minutes prior to acquisition training in a volume of 5 μL. Doses are expressed as the free base weight of each compound.

Experiment [3] has as its system AII binding sites in the brain. Briefly: Binding of AII antagonists to sections of brain slices. The settings on record: in words.
The subject of experiment [4] is light/dark habituation performance. The settings on record: subchronic treatment; in words; cited from earlier work.
The subject of another experiment is avoidance learning. The conditions noted are these: renin into lateral ventricle; captopril IVT prior to renin; in words; cited from earlier work.
The subject of experiment [5] is scopolamine-induced disruption of performance. The conditions noted are these: daily treatment; in words; cited from earlier work.
The subject of another experiment is uphill avoidance. The conditions noted are these: acute 30 mg/kg PO; in words; cited from earlier work.
Experiment [6] deals with ACh in the striatum and hypothalamus. The conditions noted are these: acute or repeated administration; in words; cited from earlier work.
Experiment [7] concerns scopolamine-induced impairment of eight arm radial maze performance. The conditions noted are these: 3 mg/kg IP; in words; cited from earlier work.
Experiment [8] relates to scopolamine-induced PA amnesia. The conditions noted are these: three times per day at 1, 3 and 10 mg/kg PO; in words; cited from earlier work.
In experiment [9] the test system is potassium-stimulated release of ACh in entorhinal cortex. The conditions noted are these: in vitro, entorhinal cortex from rat brain; in words; cited from earlier work.
For another experiment, the system named is AII-1 receptor. Briefly: AII-1 receptor antagonism (statement). The settings on record: in words.
Experiment [10] deals with memory of previously learned tasks; anticholinergic effect on performance. The settings on record: in words; cited from earlier work.
The test system of experiment [11] is AII-2 receptor (AII receptor subtype-2). The settings on record: in words; cited from earlier work.
In experiment [12] the test system is AII in cerebrospinal fluid. The conditions noted are these: after renin IVT; increased from 40; cited from earlier work.

For the molecule lysine-8-vasopressin, the “effect on retention of a PA response” value in experiment [1] is listed as “no effect”.
For the molecule `Cc1cc(Cn2cnc3c2CC(C(=O)O)N(C(=O)C(c2ccccc2)c2ccccc2)C3)ccc1N` (stereo not shown) [EXP655, 1-(4-amino-3-methylphenyl)methyl-5-diphenylacetyl-4,5,6,7-tetrahydro-1H-imidazo[4,5-c]pyridine-6-carboxylic acid], the “effect on memory / renin-induced amnesia” value in experiment [2] was “less effective in preventing amnesia”. Also, the “sensitivity of AII binding sites in brain” value in [3] was “the majority of binding sites in the brain are DTT-insensitive and EXP655-sensitive”.
As for `C[C@H](CS)C(=O)N1CCC[C@H]1C(=O)O` [captopril], the “effect on memory / renin-induced amnesia” value in experiment [2] is reported as “prevented”. In addition, in experiment [4], the “rate of acquisition of light/dark habituation performance” value is “increased the rate of acquisition”. In the experiment on avoidance learning, the “effect on avoidance learning” value is reported as “prevented the renin-induced avoidance disruption”. Moreover, in experiment [5], the “scopolamine-induced disruption of performance” value is “prevented”.
As to `CCOC(=O)C(CCc1ccccc1)NC(C)C(=O)N1CC2(CC3CCC2CC3)CC1C(=O)O` (stereo not shown) [Hoe 288], the “performance during retention testing, uphill avoidance” value with uphill avoidance is given as “improved performance during retention testing”. In experiment [6], the “change of ACh in striatum and hypothalamus” value is “significant decrease in ACh”. In [7], the “effect of muscarinic receptor blockade on performance” value is recorded as “partially antagonized the effects of muscarinic receptor blockade”. For the same molecule, in [8], the “effect on scopolamine-induced PA amnesia” value is “partially reversed the amnesia”.
On to “[1-sarcosine, 8-threonine]angiotensin-II”, for which, in [9], the “effect on potassium-stimulated release of ACh” value (“effect … of ACh” below) is “antagonized”.
Turning to `CCCc1nc(C(F)(F)F)c(C(=O)O)n1Cc1ccc(-c2ccccc2-c2nnn[nH]2)cc1` [Compound C, 2-n-propyl-1-[(2'-(1H-tetrazol-5-yl)biphenyl-4-yl)methyl]-4-trifluoromethylimidazole-5-carboxylic acid], in [2], the “effect on memory / renin-induced amnesia” value is “protected against amnesia”. Moreover, the “AII-1 receptor antagonist activity” value in the experiment on AII-1 receptor is given as “AII-1 receptor antagonists”.
For `NCCCC[C@H](OP(=O)(O)CCCCc1ccccc1)C(=O)N1CCC[C@H]1C(=O)O` [SQ 29852], in experiment [10], the “effect on anticholinergic effect on performance” value was “ameliorate, at least in part” and the “effect on memory of previously learned tasks” value is recorded as “protective effects on memory of previously learned tasks”.
Take `CCCc1nc(C(F)(F)F)c(CO)n1Cc1ccc(-c2ccccc2-c2nnn[nH]2)cc1` [Compound D, 2-n-propyl-5-hydroxymethyl-1-[(2'-(1H-tetrazol-5-yl)biphenyl-4-yl)methyl]-4-trifluoromethylimidazole]: the “effect on memory / renin-induced amnesia” value in [2] is recorded as “protected against amnesia”. Moreover, the “AII-1 receptor antagonist activity” value with AII-1 receptor is listed as “AII-1 receptor antagonists”.
With “AI: printed "AI, but not AI" in b14 (DRVYIHPFHL; Angiotensin-1; UniProt P01019 25-34, looked up)”, the “effect … of ACh” value in [9] was “reduced potassium-stimulated release of ACh without effects on basal levels”.
Take `O[C@H](CS)[C@H](O)CS` (racemic) [DTT, dithiothreitol]: the “inactivation of AII-2 receptor by DTT” value in experiment [11] is “resistant to DTT inactivation”.
In the case of `NC(=O)[C@@H]1CCCN1C(=O)[C@H](Cc1cnc[nH]1)NC(=O)[C@@H]1CCC(=O)N1` [thyrotropin releasing hormone], the “effect on retention of a PA response” value in experiment [1] was “no effect”.
On to “AII: Angiotensin-II, a circulating hormone thought to act as a neuropeptide in the CNS (DRVYIHPF; Angiotensin-2; UniProt P01019 25-32, looked up)”, for which the “effect … of ACh” value in experiment [9] is “can inhibit the release of ACh”. The “effect on retention of a PA response” value in experiment [1] is “disruption in retention of a PA response”.

B1: renin: Renin (Sigma Chemicals), a stimulator of endogenous AII biosynthesis (protein, UniProt P00797 67-406, looked up)
Renin: LTLGNTTSSVILTNYMDTQYYGEIGIGTPPQTFKVVFDTGSSNVWVPSSKCSRLYTACVYHKLFDASDSSSYKHNGTELTLRYSTGTVSGFLSQDIITVGGITVTQMFGEVTEMPALPFMLAEFDGVVGMGFIEQAIGRVTPIFDNIISQGVLKEDVFSFYYNRDSENSQSLGGQIVLGGSDPQHYEGNFHYINLIKTGVWQIQMKGVSVGSSTLLCEDGCLALVDTGASYISGSTSSIEKLMEALGAKKRLFDYVVKCNEGPTLPDISFHLGGKEYTLTSADYVFQESYSSKKLCTLAIHAMDIPPPTGPTWALGATFIRKFYTEFDRRNNRIGFALAR
For the molecule B1, the “effect on memory / renin-induced amnesia” value in [2] was “produces memory deficit; also recorded: dose-related amnesia”. The “Median Retention Latency” value is 48 s and 32 s and 27 s in [2] (renin 1.0 μg/5 μL IVT alone); 17 s in experiment [2] (renin 5.0 μg/5 μL IVT alone). Besides, the “effect on avoidance learning” value in the experiment with avoidance learning was “disruption of avoidance learning”. Also, the “AII in cerebrospinal fluid” value in experiment [12] is reported as “about 5000 fmol per mL”.
